Experimental data as given in patent publication US8053581B2, “Trisubstituted thiazole compounds, preparations methods, pharmaceutical compositions and medicals uses thereof” (Institute of Pharmacology and Toxicology Academy of …, priority 2006, dated 2011).

How the values were obtained:
[1] = target: T1, CETP (Homo sapiens, UniProt P11597); assay: Determination of CETP inhibition activity (fluorescent donor/acceptor transfer); assay type: biochemical; settings: for inhibition at 500 µM: Concentration of compounds 500 μM, read-out: CETP inhibition activity Inhibition rate(%)
T1 sequence (P11597 18-493): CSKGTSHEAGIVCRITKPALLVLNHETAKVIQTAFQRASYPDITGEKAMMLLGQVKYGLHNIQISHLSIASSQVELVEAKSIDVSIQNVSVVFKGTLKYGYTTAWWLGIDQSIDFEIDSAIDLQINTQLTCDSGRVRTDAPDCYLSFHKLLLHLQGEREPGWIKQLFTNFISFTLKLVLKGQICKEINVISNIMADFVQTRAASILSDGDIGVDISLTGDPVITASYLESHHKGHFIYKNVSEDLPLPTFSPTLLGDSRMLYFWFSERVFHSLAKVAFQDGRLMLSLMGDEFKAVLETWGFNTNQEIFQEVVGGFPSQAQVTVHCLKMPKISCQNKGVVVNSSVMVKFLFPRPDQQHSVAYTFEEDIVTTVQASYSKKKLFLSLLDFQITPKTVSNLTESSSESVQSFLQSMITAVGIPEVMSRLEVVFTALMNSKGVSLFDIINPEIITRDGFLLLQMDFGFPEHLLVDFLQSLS
Experimental: A mixture containing 3 μl of a donor, 9 μl of an acceptor (250 μg protein), 3 μl of CETP solution and 85 μl of an analytic buffer, 10 mM Tris, 0.15 M NaCl and 2 mM EDTA, pH 7.4 was incubated at 37° C. for 0.5 hours, the fluorescence intensity was determined on Victor 3 double illuminometer/fluorescence counter (Perkin Elmer) carrying […] light wave length.

[2] = target: T2, PLTP (Homo sapiens, UniProt P55058); assay: Determination of PLTP inhibition activity (radiolabelled phospholipid liposome to HDL transfer with plasma); assay type: biochemical; settings: for inhibition at 250 µM: Concentration of compounds 250 μM; for inhibition at 250 µM / inhibition at 150 µM / inhibition at 500 µM: read-out: PLTP inhibition activity Inhibition rate(%); for inhibition at 150 µM: Concentration of compounds 150 μM; for inhibition at 500 µM: Concentration of compounds 500 μM
T2 construct: from tissue
Experimental: 30 μl (about 1000 cpm/μl) phospholipids liposome, 30 μl HDL ([…]), 337 μl TSE and 3 μl plasma were mixed, incubated in 37° C. water-bath for 1 hour, and then added 300 μl of a settling solution (50 ml solution preparation: 5.36 ml 5N NaCl, 9.075 ml 2M MnCl2 and 46 mg liver phospholipid were mixed, added water to 50 ml), the solution was stood at room temperature for 10 minutes, rotated at high speed for 10 minutes (to remove phospholipids liposome), 500 μl of the supernatant was sampled and counted. PLTP activity (cpm/h/3 μl)=sample cpm-background cpm.

[3] = target: T1, CETP; settings: reported in WO 2002068450; read-out: Ki value to inhibit CETP; cited from earlier work
[4] = target: T2, PLTP; settings: reported in WO 2002068450; read-out: Ki value to inhibit PLTP; cited from earlier work

T2 sequence (P55058 18-493, species assumed): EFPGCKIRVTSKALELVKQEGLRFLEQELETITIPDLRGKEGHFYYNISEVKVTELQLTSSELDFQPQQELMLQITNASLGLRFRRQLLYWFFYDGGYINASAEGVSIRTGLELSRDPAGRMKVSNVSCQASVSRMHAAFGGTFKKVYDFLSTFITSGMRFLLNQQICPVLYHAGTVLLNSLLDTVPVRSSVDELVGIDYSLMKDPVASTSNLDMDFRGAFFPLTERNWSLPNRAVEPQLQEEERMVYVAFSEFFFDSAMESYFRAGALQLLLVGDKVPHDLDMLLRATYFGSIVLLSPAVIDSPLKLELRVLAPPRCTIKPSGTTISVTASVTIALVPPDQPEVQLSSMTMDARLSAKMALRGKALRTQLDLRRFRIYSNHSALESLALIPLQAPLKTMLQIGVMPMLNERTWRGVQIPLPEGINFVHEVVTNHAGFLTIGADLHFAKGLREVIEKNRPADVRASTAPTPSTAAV

| inhibition at 500 µM [1] [%] | inhibition at 250 µM [2] [%] | melting point [°C] | inhibition at 150 µM [2] [%] | IC50 [2] [µM] | inhibition at 500 µM [2] [%] | IC50 [1] [µM] | Structure (SMILES) | Ki [3] [µM] | Ki [4] [µM] |
| --- | --- | --- | --- | --- | --- | --- | --- | --- | --- |
| 65.4 | 15.3 | 118 to 119 |  |  |  |  | CCCCc1sc(N)nc1-c1ccc(OC)cc1 [Example 62, 4-(4-methoxy-phenyl)-5-n-butyl-thiazol-2-ylamine] |  |  |
| 71.6 |  | 124 to 125 | 0 |  |  |  | COc1ccc(C(=O)Nc2nc(-c3ccc(O)cc3)c(Cc3ccccc3)s2)cc1 [Example 40, N-[5-benzyl-4-(4-hydroxy-phenyl)-thiazol-2-yl]-4-methoxy-benzamide] |  |  |
| 6 |  | 133 to 134 | 81.6 | 35 |  |  | O=C(Nc1nc(-c2ccc(O)cc2)c(CC2CCCCC2)s1)c1ccc(O)c(O)c1 [Example 49, N-[5-cyclohexylmethyl-4-(4-hydroxy-phenyl)-thiazol-2-yl]-3,4-dihydroxy-benzamide] |  |  |
| 0 | 97 | 208 to 209 |  | 35 |  |  | O=C(Nc1nc(-c2ccc(O)cc2)c(CCc2ccccc2)s1)c1ccc(O)c(O)c1 [Example 60, 3,4-dihydroxy-N-[4-(4-hydroxy-phenyl)-5-phenylethyl-thiazol-2-yl]-benzamide] |  |  |
| 0 | 93.4 | 189 to 190 |  | 75 |  |  | CCCCc1sc(NC(=O)c2ccc(O)c(O)c2)nc1-c1ccc(O)cc1 [Example 65, N-[5-n-butyl-4-(4-hydroxy-phenyl)-thiazol-2-yl]-3,4-dihydroxy-benzamide] |  |  |
| 20.9 | 100 | 238 to 239 |  | 18 |  |  | O=C(Nc1nc(-c2ccc(O)cc2)c(CC2CCCCC2)s1)c1cc(O)c(O)c(O)c1 [Example 51, N-[5-cyclohexylmethyl-4-(4-hydroxy-phenyl)-thiazol-2-yl]-3,4,5-trihydroxy-benzamide] |  |  |
|  |  |  |  |  |  |  | CC(C)(C)C(=O)Nc1ccccc1SSc1ccccc1NC(=O)C(C)(C)C [N-{2-[2-(2,2-dimethyl-propanamido)-phenyldithio]-phenyl}-2,2-dimethyl-propanamide] | 13 | 15 |
| 0 | 100 | 276 to 278 |  | 75 |  |  | O=C(Nc1nc(-c2ccc(F)cc2)c(Cc2ccc([N+](=O)[O-])cc2)s1)c1ccc(O)c(O)c1 [Example 31, N-[4-(4-fluoro-phenyl)-5-(4-nitro-benzyl)-thiazol-2-yl]-3,4-dihydroxy-benzamide] |  |  |
| 25.3 |  | 94 to 95 | 75.7 | 75 |  |  | O=C(CCc1ccc(O)c(O)c1)Nc1nc(-c2ccc(O)cc2)c(Cc2ccccc2)s1 [Example 69, N-[5-benzyl-4-(4-hydroxy-phenyl)-thiazol-2-yl]-3-(3,4-dihydroxy-phenyl)-propanamide] |  |  |
| 52.8 | 11.5 | 199 to 201 |  |  |  |  | COc1ccc(-c2nc(N)sc2Cc2ccc(F)cc2)cc1 [Example 21, 5-(4-fluoro-benzyl)-4-(4-methoxy-phenyl)-thiazol-2-ylamine] |  |  |
| 75.8 | 24 | 143 to 144 |  |  |  |  | COc1ccc(-c2nc(N)sc2CCc2ccccc2)cc1 [Example 57, 4-(4-methoxy-phenyl)-5-phenylethyl-thiazol-2-ylamine] |  |  |
| 74.5 |  | 111 to 112 |  |  | 100 |  | COc1ccc(-c2nc(N3CCNCC3)sc2Cc2ccccc2)cc1.Cl.Cl.Cl [Example 72, 1-[5-benzyl-4-(4-methoxy-phenyl)-thiazol-2-yl]-piperazine trihydrochloride] |  |  |
| 30.4 | 67.6 | 195 to 196 |  | 100 |  |  | O=C(Nc1nc(-c2ccc(O)cc2)c(Cc2ccc([N+](=O)[O-])cc2)s1)c1ccc(O)c(O)c1 [Example 34, 3,4-dihydroxy-N-[4-(4-hydroxy-phenyl)-5-(4-nitro-benzyl)-thiazol-2-yl]-benzamide] |  |  |
| 9.2 | 73.2 | 154 to 155 |  | 100 |  |  | O=C(Nc1nc(-c2ccc(O)cc2)c(Cc2ccc(F)cc2)s1)c1ccc(O)c(O)c1 [Example 33, N-[5-(4-fluoro-benzyl)-4-(4-hydroxy-phenyl)-thiazol-2-yl]-3,4-dihydroxy-benzamide] |  |  |
| 44.1 |  | 245 to 246 | 89.4 | 15 |  |  | O=C(Nc1nc(-c2ccc(O)cc2)c(Cc2ccccc2)s1)c1cc(O)c(O)c(O)c1 [Example 41, N-[5-benzyl-4-(4-hydroxy-phenyl)-thiazol-2-yl]-3,4,5-trihydroxy-benzamide] |  |  |
| 85.9 | 10.7 | 262 to 263 |  |  |  |  | Cc1sc(NC(=O)c2cc(O)c(O)c(O)c2)nc1-c1ccc(O)cc1 [Example 55, 3,4,5-trihydroxy-N-[4-(4-hydroxy-phenyl)-5-methyl-thiazol-2-yl]-benzamide] |  |  |
| 19.4 | 79.8 | 240 to 241 |  | 70 |  |  | O=C(Nc1nc(-c2ccc(O)cc2)c(Cc2ccccc2)s1)c1ccc(O)c(O)c1 [Example 19, N-[5-benzyl-4-(4-hydroxy-phenyl)-thiazol-2-yl]-3,4-dihydroxy-benzamide] |  |  |
| 0 | 100 |  |  | 75 |  |  | O=C(Nc1nc(-c2ccccc2)c(Cc2ccc([N+](=O)[O-])cc2)s1)c1ccc(O)c(O)c1 [Example 32, 3,4-dihydroxy-N-[5-(4-nitro-benzyl)-4-phenyl-thiazol-2-yl]-benzamide] |  |  |
| 27.3 | 100 | 119 to 120 |  | 75 |  |  | CCCCc1sc(NC(=O)c2cc(O)c(O)c(O)c2)nc1-c1ccc(O)cc1 [Example 66, N-[5-n-butyl-4-(4-hydroxy-phenyl)-thiazol-2-yl]-3,4,5-trihydroxy-benzamide] |  |  |
| 91.6 |  | 88 to 89 |  |  | 61 | 75 | COc1ccc(-c2nc(N3CCOCC3)sc2Cc2ccccc2)cc1 [Example 70, 4-[5-benzyl-4-(4-methoxy-phenyl)-thiazol-2-yl]-morpholine] |  |  |
| 79.8 |  | 118 to 119 | 0 |  |  |  | COc1ccc(-c2nc(N)sc2CC2CCCCC2)cc1 [Example 47, 5-cyclohexylmethyl-4-(4-methoxy-phenyl)-thiazol-2-ylamine] |  |  |
| 80.4 |  | 109 to 110 | 0 |  |  |  | O=C(Nc1nc(-c2ccc(O)cc2)c(Cc2ccccc2)s1)c1ccc(Cl)cc1 [Example 8, N-[5-benzyl-4-(4-hydroxy-phenyl)-thiazol-2-yl]-4-chloro-benzamide] |  |  |
| 88 |  | 217 to 219 | 11.5 |  |  |  | O=C(Nc1nc(-c2ccc(O)cc2)c(Cc2ccccc2)s1)c1ccc(O)cc1O [Example 38, N-[5-benzyl-4-(4-hydroxy-phenyl)-thiazol-2-yl]-2,4-dihydroxy-benzamide] |  |  |
